Read-outs that look alike come from different tables or passages of the source.

The target in one series is CDK1 (Homo sapiens, UniProt P06493). Briefly: CDK1 kinase IC50 determination (DELFIA / 33P radiometric). The series is classed as biochemical. The procedure:
(§1) Other kinase IC50 determinations for CHK2 and FLT3 were performed using a commercial assay (Z'-Lyte, Invitrogen) or in-house with recombinant human CHK1 on a LabChip® EZ Reader II (PerkinElmer) or CDK1 in a DELFIA assay (PerkinElmer).

The target of another series is T1, CHK2 (Homo sapiens, UniProt O96017).
T1 construct: purchased Invitrogen
Nature of the series: CHK2 kinase IC50 determination (Z'-Lyte). The series is classed as biochemical. The procedure:
as §1

For the next series, the system named is 124 human kinases. Briefly: 33P radiometric kinase profiling. The class given is biochemical. As to conditions: 10μM, 124 kinases, ATP at Km.
A further series concerns Calu6. Nature of the series: Mitosis induction assay (MIA), abrogation of etoposide-induced G2 checkpoint. As to conditions: Homo sapiens, Calu-6, mean±SD. The series is classed as cell-based. The procedure:
(§2) Assays were performed as described. […] Inhibition of intracellular CHK1 activity was measured using a cell based ELISA for the abrogation of an etoposide induced G2 checkpoint (mitosis induction assay, MIA [24]). The IC50 for G2 checkpoint abrogation (MIA) was determined in the presence of nocodazole using UCN01 as a positive control. […] PI values > 1 indicate potentiation of the genotoxic activity.

A further series deals with HT29. Described as above. The series is classed as cell-based. As to conditions: Homo sapiens, HT-29, mean±SD. Here is the method:
as §2

For another series, the system named is SW620. The series is described as above. The class given is cell-based. Particulars: Homo sapiens, SW-620, mean±SD. The procedure:
as §2

Series [1] has as its system cellular CHK1 activity, four cell lines. Nature of the series: MIA, range over four cell lines. The class given is cell-based. As to conditions: Homo sapiens, read-out: IC50 for cellular CHK1 inhibition (MIA), range. Here is the method:
as §2

Series [2] relates to four human tumor cell lines. Briefly: SRB cytotoxicity, range over four cell lines. The class given is cell-based. Particulars: read-out: GI50 single-agent, range.
The test system of series [3] is pS296 CHK1 in HT29 colon tumor cells. Briefly: Western blot of gemcitabine-induced biomarkers in cells. The class given is cell-based, human. Particulars: added to gemcitabine. The procedure:
(§3) Western blotting was carried out as described. ELISA assays for pS296 CHK1 and total CHK1 were developed and validated for use in vitro and in tumor homogenates. Tumor samples for ELISA and western blotting were lysed in CHAPS buffer (1% CHAPS in 150mM NaCl, 50mM Tris-HCl pH 8.0, 1mM EDTA, 0.2mM PMSF and 1:50 Sigma Phosphatase inhibitors 2 and 3 and 1:100 Sigma protease cocktail) and immunoblotted. ELISA assays were based on commercially available kits with modifications (Cell Signalling Technologies). For pS296 CHK1 detection the commercial pS317 CHK1 antibody was replaced with a pS296 CHK1 antibody (Cell Signalling Technology). Xenograft tumor homogenate was added in duplicate to 96 well plates (100μl containing 40ug protein) and quantification of the colorimetric readout was determined at 450nm using a PerkinElmer 2103 EnVision Multilabel plate reader.

Series [4] relates to HT29 colon carcinoma cells. Briefly: Cell cycle analysis (BrdU/PI). The class given is cell-based, human. The text has this: Cell cycle analysis using propidium iodide and bromodeoxyuridine staining was as described.
A short description of series [5]: Pharmacokinetics in BALB/c mice. The series is classed as in vivo. As to conditions: for bioavailability: BALB/c, 10mg/kg p.o. vs i.v., read-out: oral bioavailability (F). The procedure: (§4) Human tumor xenografts were established s.c. in female […]) athymic mice and treated as previously described. […] Compounds were extracted from whole blood, plasma and tissue homogenates with methanol-containing internal standards using established protocols. Drug concentrations were determined using liquid chromatography/tandem mass spectrometry (LC/MS-MS) and pharmacokinetics were calculated using Pharsight WinNonLin software (version 5.2.1) as previously described.

A short description of the next series: Plasma protein binding. The class given is in vitro ADME. Particulars: mouse, nude mice.
Series [6] in a line: Permeability across CaCo2 cell monolayer. The series is classed as in vitro ADME. Background: Caco-2 cells form a polarised layer with tight junctions and transporters.
A short description of series [7]: Tumor drug concentration in HT29 xenografts. The series is classed as in vivo, mice. Particulars: female, CRTac:Ncr-Fox1(nu) athymic, mouse, oral, 24h following 12.5mg/kg p.o., with gemcitabine. Here is the method:
as §4

Series [8] relates to pS296 CHK1 in HT29 tumor xenografts. Nature of the series: PK-PD biomarker study in HT29 tumor xenografts. The series is classed as in vivo, mice. As to conditions: 50 or 100mg/kg p.o. 24h after gemcitabine 100mg/kg i.v.; P < 0.05. Here is the method: as §3
Series [9] deals with HT29 human colon tumor xenografts. Briefly: Antitumor study, HT29 human colon tumor xenografts. Particulars: HT29. Here is the method: (§5) Compound tolerability and pharmacokinetic investigations were carried out in female BALB/c mice (Charles River). Human tumor xenografts were established s.c. in female CRTac:Ncr-Fox1(nu) athymic mice and treated as previously described. […] Initial treatment groups contained from 6 to 10 mice and animals were inspected daily and tumor size and volume measured every 2 or 3 days. Tumor volume and growth delay were determined as previously described.

In series [10] the test system is SW620 colon cancer xenografts. Nature of the series: Antitumor study, SW620 colon cancer xenografts. The class given is in vivo, mice. Here is the method: as §5
Series [11] concerns Calu6 RAS mutant NSCLC human tumor xenograft. Briefly: Antitumor study, Calu6 RAS mutant NSCLC xenografts. The series is classed as in vivo, mice.
Procedure: Compound tolerability and pharmacokinetic investigations were carried out in female BALB/c mice (Charles River). Human tumor xenografts were established s.c. in female CRTac:Ncr-Fox1(nu) athymic mice and treated as previously described [24, 28]. […] Initial treatment groups contained from 6 to 10 mice and animals were inspected daily and tumor size and volume measured every 2 or 3 days. Tumor volume and growth delay were determined as previously described [28].
Series [12] has as its system pS296 CHK1 in Calu6 xenograft tumors. Briefly: PD biomarkers in Calu6 xenograft tumors (western blot). Particulars: Calu6 xenografts, 6h after last dose of CCT245737 150mg/kg p.o. The series is classed as in vivo, mice. The procedure:
as §3

Series [13] relates to Eμ-Myc driven B-cell lymphoma. Nature of the series: Eμ-Myc driven transgenic mouse transplant model of B-cell lymphoma. The series is classed as in vivo, mice. As to conditions: 150mg/kg p.o. once daily for 9 days. The text has this: Transgenic Eμ-Myc mice which develop aggressive infiltrating lymphoma were established and monitored as previously described. To generate transgenic Eμ-Myc driven lymphoma allografts, tumor cells from 3 separate tumors were harvested, cells counted and injected via a tail vein. Six mice were set up per tumor to provide 3 control and 3 treated animals, giving a maximum of 9 mice per treatment group. Animals were monitored daily and continuously using RFID transponders to measure temperature, activity and water consumption as previously described. […] Bone marrow cellularity was also determined to check for tumor cell involvement. All mice were handled in compliance with local and national animal welfare guidelines.

The subject of a further series is Eμ-Myc driven lymphoma. Also noted: method as in PMID 22120667. As to conditions: 5mg/kg × 9 days; cited from earlier work.
A short description of series [14]: Antitumor study, HT29 human colon tumor xenografts. As to conditions: female, mouse, in vivo, iv. The procedure: as §5
On the technique in general: In xenograft studies the graft and the host belong to different species.

T1 sequence (O96017 whole entry): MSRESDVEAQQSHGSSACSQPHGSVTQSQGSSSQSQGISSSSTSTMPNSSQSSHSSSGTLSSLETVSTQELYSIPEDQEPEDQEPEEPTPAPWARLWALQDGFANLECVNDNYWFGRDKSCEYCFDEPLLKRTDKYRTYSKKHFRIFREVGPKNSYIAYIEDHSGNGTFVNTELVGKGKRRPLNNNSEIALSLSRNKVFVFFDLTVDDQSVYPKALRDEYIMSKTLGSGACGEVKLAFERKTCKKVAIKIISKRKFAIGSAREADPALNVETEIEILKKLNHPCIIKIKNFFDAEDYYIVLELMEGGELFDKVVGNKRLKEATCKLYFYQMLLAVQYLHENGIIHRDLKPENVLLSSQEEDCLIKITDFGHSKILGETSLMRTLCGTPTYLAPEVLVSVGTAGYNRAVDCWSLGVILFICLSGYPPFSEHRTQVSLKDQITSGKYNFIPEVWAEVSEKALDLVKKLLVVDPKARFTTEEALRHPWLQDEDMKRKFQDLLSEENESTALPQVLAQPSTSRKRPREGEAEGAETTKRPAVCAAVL
Sequence of CDK1 (P06493 whole entry): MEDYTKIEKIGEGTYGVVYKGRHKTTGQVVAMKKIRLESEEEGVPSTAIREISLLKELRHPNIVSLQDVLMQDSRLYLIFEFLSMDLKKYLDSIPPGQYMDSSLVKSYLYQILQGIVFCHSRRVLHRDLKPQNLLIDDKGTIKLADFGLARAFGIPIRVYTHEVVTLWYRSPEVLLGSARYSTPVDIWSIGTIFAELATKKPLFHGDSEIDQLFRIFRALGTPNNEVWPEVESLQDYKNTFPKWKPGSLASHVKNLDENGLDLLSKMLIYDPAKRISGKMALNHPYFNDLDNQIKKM
Sequence of CDK1 (P14635 whole entry partner): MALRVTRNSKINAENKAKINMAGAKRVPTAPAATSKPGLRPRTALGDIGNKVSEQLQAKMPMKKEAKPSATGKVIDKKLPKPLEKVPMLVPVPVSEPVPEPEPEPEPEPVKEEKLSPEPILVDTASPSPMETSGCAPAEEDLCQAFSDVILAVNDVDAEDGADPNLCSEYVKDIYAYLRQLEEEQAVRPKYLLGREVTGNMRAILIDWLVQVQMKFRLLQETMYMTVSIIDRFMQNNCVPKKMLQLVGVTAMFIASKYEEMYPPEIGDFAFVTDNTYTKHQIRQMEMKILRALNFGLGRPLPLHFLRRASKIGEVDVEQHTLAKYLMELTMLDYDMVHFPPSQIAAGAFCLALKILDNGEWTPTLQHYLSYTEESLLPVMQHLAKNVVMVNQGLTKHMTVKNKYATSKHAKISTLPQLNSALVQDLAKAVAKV

On to `N#Cc1cnc(Nc2cc(NC[C@H]3CNCCO3)c(C(F)(F)F)cn2)cn1` [CCT245737, (R)-5-((4-((morpholin-2-ylmethyl)amino)-5-(trifluoromethyl)pyridin-2-yl)amino)pyrazine-2-carbonitrile], for which the half-maximal inhibitory concentration (IC50) (as a rule, the point on the concentration scale where inhibition reaches its midpoint) at CDK1 was 1260 to 2440 nM; against CHK2, 9.03 µM; in the series on Calu6 it was 84 ± 7 nM; with HT29 it was 30 ± 12 nM; with SW620 it was 220 ± 47 nM; in series [1], 30 to 220 nM. For the same molecule, the “number of kinases (including CHK1) with > 80% inhibition” value in the series with 124 human kinases stood at 12 kinases. For the same molecule, the GI50 – broadly, the concentration at which growth is held to half of that of the control – in series [2] was in the range of 410 to 5400 nM. In addition, the “concentration causing marked loss of pS296 signal” value in series [3] was at least 0.5 μM. The “concentration giving complete inhibition of pS296 signal” value in [3] is recorded as at least 2 μM. Further, in series [4] (after etoposide 50μM × 1h, increasing concentrations, 24h), the “effect on etoposide-induced G2/M block” value is reported as “abrogated this G2/M block”. The “effect on cell cycle distribution, alone” value in [4] (up to 0.5μM for 24h) is “minimal effects”. Moreover, the “kinetics in whole blood (AUC vs dose)” value in series [5] (BALB/c mice) is “linear kinetics”. The plasma clearance in series [5] (BALB/c mice, 10mg/kg i.v.) is 2.1 L/h/kg. The volume of distribution in [5] (BALB/c mice, 10mg/kg i.v.) amounted to 0.19 L. The half-life (commonly how long it takes for the measured level to halve) in [5] (BALB/c mice, 10mg/kg i.v., plasma) was 2.86 h. Besides, the bioavailability in series [5] (female, plasma, oral, mouse) stood at 100%; in series [5] (female, plasma, po, mouse), 105%. The Kp in [5] (female, mouse, spleen, other: both routes of administration (i.v. and p.o.), 10 mg/kg, BALB/c mice, both routes of administration, read-out: spleen concentration relative to plasma) lay in the range of 10 to 25. Moreover, the fraction unbound (commonly the share of the substance not bound to proteins or other matrix) at 10 μM in the series “Plasma protein binding” was 0.244. Moreover, in [6] (human, Caco-2, CaCo2 cell monolayer, read-out: cell permeability Pe), the Papp amounted to 25 ×10⁻⁶ cm/s. Also, the “active efflux by PGP” value in series [6] (no asymmetry apical > basal or basal > apical) is on record as “not a substrate for active efflux by PGP”. The concentration at 24 h in [7] was at least 3000 nM. Further, in series [8], the “gemcitabine-induced pS296 CHK1 signal in tumor” value is listed as “significantly reduced”. Besides, the growth delay in [9] (alone, 150mg/kg p.o. days 1,2,5,6,9,10 (irinotecan study), mean±SD) was 1.0 ± 1.0 days; in [9] (alone, 150mg/kg p.o. days 1,2,8,9,15,16, mean±SD) it was 0.3 ± 3.4 days. Further, in series [10] (combination with gemcitabine, day 9), the body weight loss is 4.3%. The “increase in tumor growth delay” value in [11] (CCT245737 150mg/kg p.o. added to gemcitabine 100mg/kg i.v. + carboplatin 5mg/kg i.p., P < 0.001) amounted to 9 days. Also, the weight loss in series [11] (combination with gemcitabine + carboplatin, nadir on day 3) is listed as 2%. The “gemcitabine + carboplatin induced pS296 CHK1 signal in tumor” value in [12] is “completely abolished”. In addition, in [13], the “effects on normal tissues (lung, bone marrow, kidney)” value is “minimal effects”. Further, the “tolerability (body weights)” value in series [13] was “well tolerated”. For the same molecule, the “weight of inguinal, brachial/axillary and mesenteric lymph nodes vs vehicle” value in series [13] (P < 0.05) is on record as “significantly reduced”. The spleen weight entry in series [13] (p < 0.01) was “increased significantly”.
With `CN[C@@H]1C[C@H]2O[C@@](C)([C@@H]1OC)n1c3ccccc3c3c4c(c5c6ccccc6n2c5c31)C(=O)N[C@H]4O` [UCN01], in the series on Eμ-Myc driven lymphoma, the “antitumor activity in Eμ-Myc model” value is recorded as “clear evidence of tumor growth inhibition” and the blood cell count entry is “decreased blood cell count”.
In [14], `Nc1ccn([C@@H]2O[C@H](CO)[C@@H](O)C2(F)F)c(=O)n1` [gemcitabine] had an MTD of 200 mg/kg. In addition, the growth delay in series [9] (alone, 100mg/kg i.v. days 0,7,14, mean±SD (Figure 3A)) is -0.6 ± 2.7 days; in [9] (gemcitabine alone at the MTD of 200mg/kg i.v. (Figure 3B)), 6 days; in series [9] (gemcitabine alone, fixed dose 100mg/kg i.v. (Figure 3B)), 3 days; in series [10] (gemcitabine alone 100mg/kg i.v. days 0,4,8), 1.5 ± 2.3 days.
For the molecule `CCc1c2c(nc3ccc(OC(=O)N4CCC(N5CCCCC5)CC4)cc13)-c1cc3c(c(=O)n1C2)COC(=O)[C@]3(O)CC` [irinotecan], in [9] (alone, 25mg/kg i.p. days 0,4,8, mean±SD, n = 6), the growth delay was 6.2 ± 4.6 days.

Source of the values: publication PMC4823038 (Oncotarget, 2015).
